Reference: US11224565B2, “N-acyldipeptide derivatives and their uses” (NeoStrata Company, Inc., priority 2011, dated 2022)
Peptide text beside a SMILES is read from it.

Legend:
Assay type in all cases: in vivo, human
[1] = tested on: Disturbed keratinization; assay: Summary of test results in volunteer subjects: disturbed keratinization; conditions: efficacy grade
Description: (§1) In one embodiment, a composition for topical application to test its therapeutic effect was formulated by dissolving a bioactive dipeptide derivative of the present invention in a solution prepared from 40 parts water, 40 parts ethanol and 20 parts propylene glycol by volume (WEP442). In another embodiment, a composition was formulated by dissolving a bioactive dipeptide derivative of the present invention in a non-aqueous solution prepared from 80 parts ethanol and 20 parts propylene glycol by volume (EP82). In yet another embodiment, a composition was formulated first by dissolving a bioactive dipeptide derivative of the present invention in a solution prepared from 80 parts water and 20 parts propylene glycol by volume (WP82), and the solution thus prepared was mixed with an oil-in-water emulsion or cream. In another embodiment, the volunteer subject topically applied the test compositions containing N-acyldipeptide derivatives of the present invention on involved skin or lesions once or twice daily for several weeks or until the involved lesions completely cleared and clinically changed to normal skin. As a control study, the subject also topically applied a vehicle control composition on the involved skin or lesions twice daily for the same period. In yet another embodiment, the volunteer subject topically applied once or twice daily the test compositions containing N-acyldipeptide derivatives of the present invention on the skin site above arthritic joints or painful muscles to provide therapeutic effects for the systemic disorders via topical administration. Some test results are summarized as follows. DK: Disturbed keratinization

[2] = tested on: Aging related changes of skin, nail and hair; assay: Summary of test results in volunteer subjects: aging related changes; conditions: efficacy grade
Description: as §1, with “AG: Aging related changes of skin, nail and hair” for “DK: Disturbed keratinization”

[3] = tested on: Deranged immune disorders and inflammation; assay: Summary of test results in volunteer subjects: deranged immune disorders and inflammation; conditions: efficacy grade
Description: as §1, with “DI: Deranged immune disorders and inflammation” for “DK: Disturbed keratinization”

[4] = tested on: Nerve disorders; assay: Summary of test results in volunteer subjects: nerve disorders; conditions: efficacy grade
Description: as §1, with “ND: Nerve disorders” for “DK: Disturbed keratinization”

[5] = tested on: forearm skin; assay: Skin thickness of forearm by micrometer calipers after topical application; conditions: for increase in skin thickness of treated left forearm: 2% (w/v) in WEP442 topically twice daily, vehicle forearm no change
Description: In one of the studies related to skin changes associated with aging, skin thickness was measured by micrometer calipers as follows. The skin was grasped with a 2×6 cm metal hinge; the internal faces of which were coated with emery cloth to prevent slippage, and manually squeezed to threshold subject discomfort. Combined thickness of two whole-skin layers including thickness of the two hinge leaves was measured with micrometer calipers. Thickness of the two hinge leaves was subtracted to determine the actual thickness of two whole-skin layers. Triplicate measurements on treated sites were done and an average number was used for calculation of the skin thickness. In other studies, test sites of skin 17 mm in diameter were used, the circular sites were marked with permanent ink. Intervening control sites were also 17 mm in diameter. Thickness of skin of all sites was measured directly by means of an electronic digital caliper. In this instance the jaws of the caliper were opened to 17 mm, applied with pressure to the skin sites and then closed to firm tightness. Thickness of skin was then read off the screen of the calipers. Measurements of all sites were made in triplicates.

[6] = tested on: inflammation, dermatitis, or eczema lesions; assay: Topical application to chronic inflammation, dermatitis, eczema or allergic skin lesions, clinical evaluation; conditions: chronic eczema, twice daily, 0.6% (w/w) N-Ac-L-Tyr-L-Tyr-NHNH2 cream on one set of lesions, 0.7% (w/w) N-Ac-L-Tyr-L-Tyr-NHNHAc cream on another
Description: In another embodiment, the volunteer subject topically applied the test compositions containing N-acyldipeptide derivatives of the present invention on involved skin or lesions once or twice daily for several weeks or until the involved lesions completely cleared and clinically changed to normal skin. As a control study, the subject also topically applied a vehicle control composition on the involved skin or lesions twice daily for the same period.

Compound | DK [1] | AG [2] | DI [3] | ND [4] | appearance of treated left forearm at end of treatment ([5]; 1-3% (w/v) in WEP442 topically twice daily for 1-6 weeks as in the example, vehicle forearm still loose, thin and wrinkled) | increase in skin thickness of treated left forearm ([5]; after one week) [%] | increase in skin thickness of treated left forearm ([5]; after three weeks) [%] | increase in skin thickness of treated left forearm ([5]; after two weeks) [%] | improvement as judged by clinical evaluation ([6]; two weeks) [%] | itch after topical application [6]
CC(=O)N[C@@H](Cc1ccc(O)cc1)C(=O)NCC(N)=O [N-Ac-L-Tyr-Gly-NH2] | 2+ (2+: 50% Efficacy) | 2+ (2+: 50% Efficacy) | 2+ (2+: 50% Efficacy) | 2+ (2+: 50% Efficacy) |  |  |  |  |  | 
CC(=O)N[C@@H](Cc1ccc(O)cc1)C(=O)N[C@@H](Cc1ccc(O)cc1)C(=O)NN [N-Ac-L-Tyr-L-Tyr-NHNH2] (HELM PEPTIDE1{[ac].Y.Y.[NN[*:1]]}$$$$V2.0) | 3+ (3+: 75% Efficacy) | 3+ (3+: 75% Efficacy) | 2+ (2+: 50% Efficacy) | 2+ (2+: 50% Efficacy) | more firm, smooth, plump, and less wrinkled when lifted | 15 | 32 | 14 | 75 | stopped a few minutes after
CCOC(=O)[C@H](Cc1ccc(O)cc1)NC(=O)[C@H](Cc1ccc(O)cc1)NC(C)=O [N-Ac-L-Tyr-L-Tyr-OEt] (HELM PEPTIDE1{[ac].Y.Y.[CCO[*:1]]}$$$$V2.0) | 2+ (2+: 50% Efficacy) | 2+ (2+: 50% Efficacy) | 2+ (2+: 50% Efficacy) | 2+ (2+: 50% Efficacy) |  |  |  |  |  | 
CC(=O)N[C@H](C(=O)NCC(N)=O)C(C)C [N-Ac-L-Val-Gly-NH2] (Ac-Val-Gly-NH2) | 2+ (2+: 50% Efficacy) | 2+ (2+: 50% Efficacy) | 4+ (4+: 95-100% Efficacy) | 4+ (4+: 95-100% Efficacy) |  |  |  |  |  | 
CC(=O)N[C@H](C(=O)NCC(=O)O)C(C)C [N-Ac-L-Val-Gly-OH] (Ac-Val-Gly-OH) | 2+ (2+: 50% Efficacy) | 2+ (2+: 50% Efficacy) | 3+ (3+: 75% Efficacy) | 4+ (4+: 95-100% Efficacy) |  |  |  |  |  | 
CC(=O)N[C@H](C(=O)N[C@@H](C)C(=O)O)C(C)C [N-Ac-L-Val-L-Ala-OH] (Ac-Val-Ala-OH) | 2+ (2+: 50% Efficacy) | 2+ (2+: 50% Efficacy) | 3+ (3+: 75% Efficacy) | 4+ (4+: 95-100% Efficacy) |  |  |  |  |  | 
CC(=O)N[C@H](C(=O)N[C@@H](Cc1ccc(O)cc1)C(N)=O)C(C)C [N-Ac-L-Val-L-Tyr-NH2] (Ac-Val-Tyr-NH2) | 2+ (2+: 50% Efficacy) | 2+ (2+: 50% Efficacy) | 2+ (2+: 50% Efficacy) | 2+ (2+: 50% Efficacy) |  |  |  |  |  | 
CC(=O)NCCC(=O)NCC(N)=O [N-Ac-β-Ala-Gly-NH2] | 2+ (2+: 50% Efficacy) | 2+ (2+: 50% Efficacy) | 2+ (2+: 50% Efficacy) | 2+ (2+: 50% Efficacy) |  |  |  |  |  | 
CC(=O)NCCC(=O)N[C@@H](Cc1c[nH]cn1)C(N)=O [N-Ac-βAla-L-His-NH2] | 2+ (2+: 50% Efficacy) | 2+ (2+: 50% Efficacy) | 2+ (2+: 50% Efficacy) | 2+ (2+: 50% Efficacy) |  |  |  |  |  | 
CCC(=O)N[C@@H](CC(C)C)C(=O)NCC(=O)O [N-Pr-L-Leu-Gly-OH] (HELM PEPTIDE1{[CCC(=O)[*:2]].L.G}$$$$V2.0) | 2+ (2+: 50% Efficacy) | 2+ (2+: 50% Efficacy) | 3+ (3+: 75% Efficacy) | 3+ (3+: 75% Efficacy) |  |  |  |  |  | 
CCC(=O)N[C@H](C(=O)N[C@@H](C)C(=O)O)C(C)C [N-Pr-L-Val-L-Ala-OH] (HELM PEPTIDE1{[CCC(=O)[*:2]].V.A}$$$$V2.0) | 2+ (2+: 50% Efficacy) | 2+ (2+: 50% Efficacy) | 3+ (3+: 75% Efficacy) | 4+ (4+: 95-100% Efficacy) |  |  |  |  |  | 
NC(=O)CNC(=O)[C@H](Cc1ccc(O)cc1)NC(=O)OCc1ccccc1 [N-Z-L-Tyr-Gly-NH2] | 2+ (2+: 50% Efficacy) | 2+ (2+: 50% Efficacy) | 2+ (2+: 50% Efficacy) | 2+ (2+: 50% Efficacy) |  |  |  |  |  | 
N,N′-diAc-βAla-L-His-NH2 | 2+ (2+: 50% Efficacy) | 2+ (2+: 50% Efficacy) | 2+ (2+: 50% Efficacy) | 2+ (2+: 50% Efficacy) |  |  |  |  |  | 
N-Ac-L-Tyr-L-Hpg-NH2 | 2+ (2+: 50% Efficacy) | 2+ (2+: 50% Efficacy) | 2+ (2+: 50% Efficacy) | 2+ (2+: 50% Efficacy) |  |  |  |  |  | 
